Measurements reported in patent publication US20220125877A1, “METHOD FOR TREATING COLORECTAL CANCER” (SUN YAT-SEN UNIVERSITY, priority 2019, published 2022).

Legend:
KRAS mutation PDX tumor = experiment: PDX model, tumor size and weight; type: in vivo, BALB/c nude mice; details: compared with KRAS wildtype tumor model; 200 mg/kg in water, 30 d, FIG. 7
Description: Use of the PDX model: tumor tissues from the clinical KRAS wildtype and mutation CRC patients were taken, the tumor cells were cultured with a digestion process; after identifying the KRAS mutation, the tumor cells were planted in an axillary fossa area of nude mice.
1) Collection of patients' tumor specimens: cancer tissues with non-necrotic edges were taken from specimens obtained after excision, and soaked into a PRMI1640 culture solution containing 5% fetal calf serum, 1×penicillin and streptomycin double-antibodies, and then transported at 4° C.;
2) the tumor tissues were cut into small pieces having a size of about 2×2×2 mm on a super clean bench, and cleaned for 3 times with the above culture solution to remove extravasated blood; […]
7) when the transplanted tumor grew to 100-200 mm^3, the nude mice were administered intragastrically everyday at 9:00 a.m. for consecutive 28 d. […] The size of the transplanted tumor was measured everyday, volume (mm^3)=[length×width^2]/2;
8) the nude mice were killed 30 d layer, and tumor tissues were taken, shoot, measured, embedded and sliced.
200 mg/kg (equivalent to human 1000 mg) metformin was dissolved into water, and respectively taken by KRAS wildtype and mutation animals; then the tumor size was measured; 30 d later, the tumor tissues were killed and weighed.

[1] = test system: LoVo cell line with knock-down KRAS protein; experiment: Cell viability in KRAS knock-down cells; type: cell-based, human; details: relative to LoVo, FIG. 8D
Description: The cells were inoculated on a plate according to the concentration of 5000 cells/well (48-well plate, 200 μl per well). The cells were treated with different ways according to the experimental requirements, and 10 μl CCK8 solution was added after a period of time. The cells were incubated for 1 h in an incubator; 200 μl supernatant were absorbed into a 96-well ELISA plate to determine OD450 with a microplate reader.
2) LoVo cells were subcultured to a 6-well plate (about 1×10^5/well), when cells were subjected to adherence growth, and the degree of cell fusion was not greater than 50%, fresh culture solution was replaced ahead of 2 h, and 10 μg/mL lentivirus infection enhancer polybrene was added. Multiplicity of Infection (MOI) of LoVo was about 20; lentivirus was added according to the formula: adding amount of lentivirus per well (μl)=MOI×cell population/titer (TU/ml)×1000. The culture solution was replaced after 16-18 h, and 1 μM puromycin was conventionally added for screening the cell line whose RNA stable expression was interfered by KRAS.

[2] = test system: SW48 KRAS (G13D) cell line; experiment: Proliferation / cell cycle in CRISPR/Cas9 KRAS (G13D) cells; type: cell-based, human; details: relative to SW48, FIG. 8E
Description: 1) The cells were inoculated onto a 6-well plate, and subjected to adherence growth for 12 h, then starvation treatment over the night, and treated with the addition of an agent for 24 h, then the cells were digested and washed for 3 times with PBS and centrifuged to discard supernatant; −20° C. pre-cooled 70% ethanol was added dropwise, and the cells were mixed well by vortex, and immobilized over the night at −20° C.

[3] = test system: ERK, RB, MPK, AKT, mTOR and 4E-BP1 phosphorylation in LoVo; experiment: Western blot of MEK/ERK/cyclin D1/RB and PI3K/AKT/mTOR/4E-BP1 signaling; type: cell-based, human; details: 24 h, FIGS. 9A-C
Description: (§1) Western blot was used to detect the change of metformin on the related molecules of sroliferative signaling pathways MEK/ERK/cyclin D1/RB and PI3K/AKT/mTOR/4E-BP1, which clarifies the mechanism of metformin in inhibiting the proliferation of KRAS mutation CRC cells.
(§2) 1) Cells were inoculated on a culture dish and cultured to 60% of fusion degree, and treated with the addition of an agent for 24 h.
(§3) 2) Protein was collected, and washed with PBS for 3 times, then added with 100 μl 1 RSDS buffer solution (100 mmol/1 Tris-Cl pH6.8, 2% SDS, 10% glycerinum), and at this time, the cell lysis solution was sticky.
(§4) 3) The cell lysis solution was collected into a 0.5 ml centrifugal tube with a scraper, and cooked for 30 min at 100° C.
(§5) 4) The total protein extractive in the cells was subjected to protein quantification according to a BCA kit process (BIO-RAD company).
(§6) 5) The sample was treated according to a ratio of 9 μl denatured protein sample: 1 μl denatured buffer solution (β-mercaptoethanol (BME), 0.4% Bromphenol Blue), and boiled for 30 min at 100° C. for further use.
(§7) 6) A prepared SDS-PAGE gel (10% separation gel and 5% stacking gel) was taken; samples were added with 40 ug/well, and subjected gel electrophoresis for 30 min at 80V, and gel electrophoresis for 90 min at 120V. […]

[4] = test system: ERK, RB, MPK, AKT, mTOR and 4E-BP1 phosphorylation in SW48; experiment: as above; type: cell-based, human; details: 24 h, FIGS. 9A-C
Description: as §1, §2, §3, §4, §5, §6, §7

[5] = test system: 4E-BP1 phosphorylation in LoVo cell line with knock-down KRAS protein; experiment: Western blot of signaling pathways; type: cell-based, human; details: FIG. 9E
Description: as §1, §2, §3, §4, §5, §6, §7

[6] = test system: cyclinD1/RB and AKT/mTOR/4E-BP1 signaling pathways in KRAS (G13D) mutation SW48 cell line; experiment: Western blot of signaling pathways; type: cell-based, human; details: FIG. 9D
Description: as §1, §2, §3, §4, §5, §6, §7

[7] = test system: KRAS^G13DSW48 graft with MATE1 over-expressed; experiment: Cell-derived xenograft (CDX), tumor growth; type: in vivo, BALB/c nude mice; details: 200 mg/kg in water, 30 d, compared with the KRAS^G13DSW48 tumor, FIGS. 12G-L
Description: (§8) In the CDX, CRISPR/Cas9 was first utilized to build a KRAS^G13DSW48 cell line; MATE1 was knocked down by shRNA lentivirus transduction in SW48 to build a sh-MATE1-SW48 cell line; lentivirus was infected in KRAS^G13DSW48 cells to over-express MATE1. 1×10^6 cells were suspended in a basement membrane matrix (100 μl basement membrane matrix and 100 μl PBS) and subcutaneously injected into BALB/c nude mice. CDX mice were randomly distributed into a metformin treatment group and a control group. 200 mg/kg (equivalent to human 1000 mg) metformin was dissolved into water, and respectively taken by the 4 groups of animals; then the tumor size was measured; 30 d later, the tumor tissues were killed and weighed.

SW48+sh-MATE1 CDX = experiment: Cell-derived xenograft (CDX), tumor growth; type: in vivo, BALB/c nude mice; details: 200 mg/kg in water, 30 d, MATE1 knocked down, FIGS. 12G-L
Description: as §8

Compound: CN(C)C(=N)N=C(N)N [metformin]
- tumor size (KRAS mutation PDX tumor): obviously inhibit
- tumor weight (KRAS mutation PDX tumor): obviously inhibit
- inhibiting effect on cell viability after interference of KRAS (G13D) expression [1]: down-regulate the inhibiting effect
- inhibiting effect on proliferation of tumor cells with cell cycle after KRAS (G13D) mutation [2]: enhances the inhibiting effect
- phosphorylation levels in ERK, RB, MPK, AKT, mTOR and 4E-BP1 [3]: inhibited phosphorylation levels
- phosphorylation levels in ERK, RB, MPK, AKT, mTOR and 4E-BP1 [4]: no obvious change
- inhibiting effect on LoVo protein and 4E-BP1 phosphorylation after interference of KRAS (G13D) expression [5]: down-regulate the inhibiting effect
- change of the cyclinD1/RB and AKT/mTOR/4E-BP1 signaling pathways [6]: consistent with the KRAS mutation CRC cells LoVo
- anti-tumor effect (tumor growth) [7]: has no effect
- tumor growth (SW48+sh-MATE1 CDX): significantly inhibits the tumor growth
